The target in test [1] is T1, SARS-CoV-2 PLpro (nsp3 1564–1878) (Severe acute respiratory syndrome coronavirus 2, UniProt P0DTD1). Description: biochemical. Set-up: FRET-quenched peptide (Pro3) cleavage by PLpro, 10 min pre-incubation, slope over 20 min, normalised to no-compound control. The conditions noted are these: read-out: % of control remaining.
Test [2] concerns the target T1, SARS-CoV-2 PLpro (nsp3 1564–1878). Description: biochemical. The conditions noted are these: read-out: % of control remaining. Set-up: FRET-quenched peptide (Pro3) cleavage by PLpro, 10 min pre-incubation, slope over 20 min, normalised to no-compound control. This is another data set of the same source.

Where a name gives a salt, the structure may show the parent alone. Read-outs that look alike come from different tables or passages of the source.

For the compound `CC(=O)N[C@@H]1[C@@H](O)[C@H](O)[C@@H](CO)O[C@@H]1O` [N-Acetyl-D-glucosamine], the remaining activity at 1.25 µM in test [1] (Well no.=6881, low concentration screen) was 100%. The remaining activity at 3.75 µM in test [2] (Well no.=6881, high concentration screen) was 95%.
For `CCCCCCN(CCCCCC)C(=O)Cc1c(-c2ccc(F)cc2)[nH]c2ccccc12` [N,N-Dihexyl-2-(4-fluorophenyl)indole-3-acetamide], the remaining activity at 1.25 µM in test [1] (Well no.=632, low concentration screen) was 99.3%. The remaining activity at 3.75 µM in test [2] (Well no.=632, high concentration screen) is 96.6%.
Consider `CCCCCCCCC(=O)NCc1ccc(O)c(OC)c1` [N-Vanillylnonanamide], for which, in test [1], the remaining activity at 1.25 µM is 96.7%. Moreover, in test [2], the remaining activity at 3.75 µM is 96.6%.
Take `O=C(O)CCCc1c[nH]c2ccccc12` [Indole-3-butyric acid]: the remaining activity at 1.25 µM in test [1] (Well no.=3210, low concentration screen) came out at 91.8%. In addition, the remaining activity at 3.75 µM in test [2] (Well no.=3210, high concentration screen) came out at 98.5%.
In the case of `N#Cc1ccc2[nH]cc(CCCCN3CCN(c4ccc5oc(C(N)=O)cc5c4)CC3)c2c1` [Vilazodone (Hydrochloride)], the remaining activity at 1.25 µM in test [1] (Well no.=6286, low concentration screen) was 105%. Also, the remaining activity at 3.75 µM in test [2] (Well no.=6286, high concentration screen) amounted to 106%.
With `O=C(O)[C@@H]1C[C@H](C(=O)O)N1` [cis-Azetidine-2,4-dicarboxylic acid], in test [1] (Well no.=20, low concentration screen), the remaining activity at 1.25 µM amounted to 101%. In addition, in test [2] (Well no.=20, high concentration screen), the remaining activity at 3.75 µM was 99.7%.
With `CC(C)(C)c1cc(C=C(C#N)C#N)cc(Br)c1O` [AG 1024], the remaining activity at 1.25 µM in test [1] (Well no.=2307, low concentration screen) was determined as 104%. Further, the remaining activity at 3.75 µM in test [2] (Well no.=2307, high concentration screen) was 104%.
Turning to `C[N+]1(C)[C@@H]2CC[C@H]1C[C@@H](OC(=O)C(O)c1ccccc1)C2` (stereo partly drawn) [Homatropine (methylbromide)], in test [1] (Well no.=7379, low concentration screen), the remaining activity at 1.25 µM was 94.7%. Further, the remaining activity at 3.75 µM in test [2] (Well no.=7379, high concentration screen) worked out at 96%.
Consider `O[C@H]1[C@H](O)[C@@H](O)CN2CC[C@H](O)[C@H]12` [Castanospermine], for which, in test [1] (Well no.=3135, low concentration screen), the remaining activity at 1.25 µM was determined as 102%. The remaining activity at 3.75 µM in test [2] (Well no.=3135, high concentration screen) came to 102%.
In the case of `Cc1ncc(CO)c(CO)c1O` [Pyridoxine HCl], the remaining activity at 1.25 µM in test [1] (Well no.=4935, low concentration screen) was found to be 97.7%. For the same compound, the remaining activity at 3.75 µM in test [2] (Well no.=4935, high concentration screen) was determined as 96.8%.
`O=C(/C=C/c1ccc(O)cc1)CC(=O)/C=C/c1ccc(O)cc1` [Bis demethoxycurcumin]: the remaining activity at 1.25 µM in test [1] (Well no.=3466, low concentration screen) was found to be 102%. For the same compound, in test [2] (Well no.=3466, high concentration screen), the remaining activity at 3.75 µM stood at 103%.
Turning to `COC(=O)C1=CO[C@@H](O)[C@@H]2C(CO)=CC[C@H]12` [Genipin], the remaining activity at 1.25 µM in test [1] (Well no.=5276, low concentration screen) came out at 95.9%. In addition, the remaining activity at 3.75 µM in test [2] (Well no.=5276, high concentration screen) came to 89.2%.
On to `CC(C)c1ccc(NC(=O)Cn2cnc3c2c(=O)n(C)c(=O)n3C)cc1` [HC-030031], for which the remaining activity at 1.25 µM in test [1] (Well no.=5225, low concentration screen) amounted to 94%. The remaining activity at 3.75 µM in test [2] (Well no.=5225, high concentration screen) was determined as 89.7%.
With `O=C1CN2Cc3c(ccc(Cl)c3Cl)N=C2N1` [Anagrelide], in test [1] (Well no.=1629, low concentration screen), the remaining activity at 1.25 µM was 95.8%. The remaining activity at 3.75 µM in test [2] (Well no.=1629, high concentration screen) was determined as 97.6%.
Take `C#CCOC(=O)C1=CCCN(C)C1` [Arecaidine propargyl ester hydrobromide]: the remaining activity at 1.25 µM in test [1] (Well no.=254, low concentration screen) amounted to 97.1%. In addition, the remaining activity at 3.75 µM in test [2] (Well no.=254, high concentration screen) was 98.4%.
`O=C(O)C1=CO[C@@H](O[C@@H]2O[C@H](CO)[C@@H](O)[C@H](O)[C@H]2O)[C@@H]2C(CO)=CC[C@H]12` [Geniposidic acid]: the remaining activity at 1.25 µM in test [1] (Well no.=5236, low concentration screen) is 95.4%. In addition, the remaining activity at 3.75 µM in test [2] (Well no.=5236, high concentration screen) stood at 95.9%.
With `Oc1ccc(-c2nc(-c3ccc(F)cc3)c(-c3ccncc3)[nH]2)cc1` [SB 202190], the remaining activity at 1.25 µM in test [1] (Well no.=2614, low concentration screen) is 95%. For the same compound, in test [2] (Well no.=2614, high concentration screen), the remaining activity at 3.75 µM was found to be 95.5%.
As to `CN1[C@@H]2CC[C@H]1C[C@@H](OC(=O)[C@H](CO)c1ccccc1)C2` [Hyoscyamine], the remaining activity at 1.25 µM in test [1] (Well no.=3727, low concentration screen) came to 94.8%. Moreover, the remaining activity at 3.75 µM in test [2] (Well no.=3727, high concentration screen) worked out at 101%.
As to `NCCc1c[nH]cn1` [Histamine dihydrochloride], the remaining activity at 1.25 µM in test [1] (Well no.=564, low concentration screen) was determined as 103%. In test [2] (Well no.=564, high concentration screen), the remaining activity at 3.75 µM was 101%.
Turning to `CCN(CC)C(=O)c1ccc(O)c(OC)c1` [Vanillic acid diethylamide], in test [1] (Well no.=644, low concentration screen), the remaining activity at 1.25 µM worked out at 97.3%. Besides, in test [2] (Well no.=644, high concentration screen), the remaining activity at 3.75 µM amounted to 102%.
Turning to `Cc1scc2c1N(C(=O)CN1CCN(C)CC1)c1ccccc1NC2=O` [Telenzepine dihydrochloride], in test [1] (Well no.=1186, low concentration screen), the remaining activity at 1.25 µM was determined as 95.7%. Besides, in test [2] (Well no.=1186, high concentration screen), the remaining activity at 3.75 µM is 97.7%.
For `O=C(O)c1ccccc1Nc1cccc(OCc2ccc3ccccc3n2)c1` [SR 2640], in test [1] (Well no.=1316, low concentration screen), the remaining activity at 1.25 µM is 101%. Moreover, in test [2] (Well no.=1316, high concentration screen), the remaining activity at 3.75 µM came out at 101%.
Turning to `C#C[C@]1(OC(C)=O)CC[C@H]2[C@@H]3CCC4=CC(=O)CC[C@@H]4[C@H]3CC[C@@]21C` [Norethindrone acetate], the remaining activity at 1.25 µM in test [1] (Well no.=5895, low concentration screen) came to 99.8%. In addition, the remaining activity at 3.75 µM in test [2] (Well no.=5895, high concentration screen) was 101%.
Consider `Cc1ccc2c(c1)C(N1CCN(C)CC1)=Nc1cccnc1N2` [JL-18], for which the remaining activity at 1.25 µM in test [1] (Well no.=781, low concentration screen) is 107%. Besides, the remaining activity at 3.75 µM in test [2] (Well no.=781, high concentration screen) came out at 103%.
Regarding `O=C(O)[C@@H]1CCN1` [L-azetidine-2-carboxylic acid], the remaining activity at 1.25 µM in test [1] (Well no.=103, low concentration screen) amounted to 105%. Further, the remaining activity at 3.75 µM in test [2] (Well no.=103, high concentration screen) worked out at 104%.
With `CN1CC[C@@]23CCCC[C@@H]2[C@@H]1Cc1ccc(O)cc13` [Dextrorphan D-tartrate], in test [1] (Well no.=592, low concentration screen), the remaining activity at 1.25 µM amounted to 101%. In addition, in test [2] (Well no.=592, high concentration screen), the remaining activity at 3.75 µM is 103%.
With `NC1CCN(c2nc3c(cc2F)c(=O)c(C(=O)O)cn3-c2ccc(F)cc2F)C1` (stereo not drawn) [Tosufloxacin], the remaining activity at 1.25 µM in test [1] (Well no.=1962, low concentration screen) was found to be 98.1%. For the same compound, the remaining activity at 3.75 µM in test [2] (Well no.=1962, high concentration screen) came to 93.3%.
With `O=C1NCN(c2ccccc2)C12CCN(CCCC(c1ccc(F)cc1)c1ccc(F)cc1)CC2` [Fluspirilene], in test [1] (Well no.=569, low concentration screen), the remaining activity at 1.25 µM is 98.4%. The remaining activity at 3.75 µM in test [2] (Well no.=569, high concentration screen) was determined as 97.3%; in test [2] (Well no.=1599, high concentration screen) it was 98.9%.
In the case of `CC12CCC(CC1)C(C)(C)O2` [Eucalyptol], the remaining activity at 1.25 µM in test [1] (Well no.=6874, low concentration screen) came to 99.2%. In addition, the remaining activity at 3.75 µM in test [2] (Well no.=6874, high concentration screen) turned out to be 99.2%.
Turning to `COc1cc2c(cc1OC)-c1cc3ccc4c(c3c[n+]1CC2)OCO4` [Epiberberine (chloride)], the remaining activity at 1.25 µM in test [1] (Well no.=8339, low concentration screen) stood at 91.9%. Also, the remaining activity at 3.75 µM in test [2] (Well no.=8339, high concentration screen) was 91.9%.
Regarding `CNC1CCCN(c2c(F)cc3c(=O)c(C(=O)O)cn(C4CC4)c3c2OC)C1` (stereo not drawn) [Balofloxacin], the remaining activity at 1.25 µM in test [1] (Well no.=5058, low concentration screen) was 95.8%. Further, the remaining activity at 3.75 µM in test [2] (Well no.=5058, high concentration screen) turned out to be 97.3%.
Take `CC[C@@H](CO)Nc1nc(NCc2ccc(-c3ccccn3)cc2)c2ncn(C(C)C)c2n1` [CR8, (S)-Isomer]: the remaining activity at 1.25 µM in test [1] (Well no.=2343, low concentration screen) came to 103%. Also, the remaining activity at 3.75 µM in test [2] (Well no.=2343, high concentration screen) was 102%.
Take `CC(=O)N[C@@H](CC(=O)O)C(=O)O` [N-Acetyl-L-aspartic acid]: the remaining activity at 1.25 µM in test [1] (Well no.=6645, low concentration screen) was 98.3%; in test [1] (Well no.=7690, low concentration screen), 101%. Further, the remaining activity at 3.75 µM in test [2] (Well no.=6645, high concentration screen) was determined as 98.5%; in test [2] (Well no.=7690, high concentration screen), 96.5%.

Source of the values: paper PMC8286840, “Identifying SARS-CoV-2 antiviral compounds by screening for small molecule inhibitors of Nsp3 papain-like protease” (Biochemical Journal, 2021).
